molecular target: SEB (Staphylococcus aureus, UniProt P01552); assay type: binding
Sequence (P01552 28-266 limits assumed): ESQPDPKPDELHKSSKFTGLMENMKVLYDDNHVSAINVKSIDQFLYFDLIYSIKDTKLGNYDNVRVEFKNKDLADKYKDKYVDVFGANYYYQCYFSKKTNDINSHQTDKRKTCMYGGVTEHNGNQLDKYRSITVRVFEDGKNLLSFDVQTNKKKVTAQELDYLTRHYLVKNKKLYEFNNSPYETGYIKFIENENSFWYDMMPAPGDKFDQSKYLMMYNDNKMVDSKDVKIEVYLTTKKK

Substance | binding of SEB to glycosphingolipid
digalactosylceramide [diGalCer] | strong binding
galactosylceramide [GalCer] | did not significantly bind
glucosylceramide [GlcCer] | did not significantly bind
lactosylceramide [LacCer] | did not significantly bind

Source: patent US6528272B2 (priority 1997, dated 2003)
